For one compound, melting point, IC50 and ADP/ATP results are on record in paper PMC10263210, “Design, Synthesis and Biological Evaluation of Novel MDH Inhibitors Targeting Tumor Microenvironment” (Pharmaceuticals, 2023).

As usually defined, the melting point is the temperature, or range, at which the solid turns liquid. The IC50 is the point on the concentration scale where inhibition reaches its midpoint.

Data set [1] concerns the target T1, human recombinant MDH1 (Homo sapiens, UniProt P40925).
T1 construct: purchased BioVision
T1 sequence (P40925 1-334): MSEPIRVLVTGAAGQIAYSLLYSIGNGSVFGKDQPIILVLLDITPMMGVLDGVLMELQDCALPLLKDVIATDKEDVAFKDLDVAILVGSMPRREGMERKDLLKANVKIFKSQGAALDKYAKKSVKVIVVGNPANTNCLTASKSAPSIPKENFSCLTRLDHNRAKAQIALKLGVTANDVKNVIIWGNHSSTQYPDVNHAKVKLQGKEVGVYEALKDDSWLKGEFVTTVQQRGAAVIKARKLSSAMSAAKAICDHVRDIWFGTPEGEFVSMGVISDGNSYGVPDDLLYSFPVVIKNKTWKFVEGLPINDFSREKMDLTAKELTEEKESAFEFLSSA
Description: MDH1 enzyme activity assay (oxaloacetate-dependent NADH oxidation). Format: biochemical. The following applies: means of three experiments. From the text: To develop the dual inhibitors of MDH1 and MDH2, we screened the newly synthesized LW1497 derivatives using MDH and MDH2 enzyme assays. LW1497 was used as the positive control for the MDH1/2 dual inhibitor. We evaluated the ability of the synthesized compounds to inhibit human recombinant MDH1 and MDH2 enzymatic activity using an oxaloacetate-dependent NADH oxidation assay (Table 1, Table 2, Table 3, Table 4, Table 5 and Table 6). Our SAR optimization strategy focused on four different parts of LW1497: (A) the introduction of various groups at different positions on the amide phenyl ring; (B) the replacement of the 3-(4-(2,4,4-trimethylpentan-2-yl) alkyl chain; (C) the alteration of the amide portion; and (D) the modification of the oxypropanamide linker portion (Figure 1).
The activities of MDH1 and MDH2 were confirmed using an oxaloacetate-dependent NADH oxidation assay. Experiments were conducted using 100 mM of potassium phosphate buffer (pH 7.4) and human recombinant MDH1 (BioVision) and MDH2 (BioVision), and the results were obtained by measuring the absorbance at 340 nm. Enzyme activity was measured using a plate reader at a wavelength of 340 nm.

Data set [2] relates to A549 cells. In words: ADP/ATP ratio assay. The format is cell-based, human. As to the method:
Malate transported to the interior of the mitochondria is oxidized to OAA by mitochondrial MDH2, thereby generating NADH, which then enters the ETC to produce ATP. Because inhibition of MAS is expected to reduce ATP production in cancer cells, the total amount of ATP was measured after treatment with compound 50.
The ADP/ATP ratio assay kit (Sigma-Aldrich, USA) was used for ADP/ATP determination according to the manufacturer’s instructions. Samples for analysis were prepared using the ADP/ATP ratio assay kit. A549 cells were cultured directly in an assay microplate. The culture medium was removed, and then 90 µL of ATP reagent was added to each well and incubated for 1 min at room temperature. Luminescence was measured on a luminometer for ATP (RLUA), and the plate was incubated for an additional 10 min. Next, the luminescence was read on a luminometer for ATP (RLUB). Five microliters of ADP reagent were added to each well. After 1 min, the luminescence was read (RLUC).

The compound `CC(C)(C)CC(C)(C)c1ccc(N2CCC(C(=O)Nc3cccc(OC(F)(F)F)c3)CC2)cc1` [Compound 50, N-(3-(Trifluoromethoxy)phenyl)-1-(4-(2,4,4-trimethylpentan-2-yl)phenyl)piperidine-4-carboxamide] had a melting point of 139 to 140 °C. The IC50 in data set [1] worked out at 3.33 ± 0.18 µM. Moreover, the ADP/ATP entry in data set [2] is given as “increase in ADP/ATP”.
